The text below walks through data of article PMC12434668 (Journal of Medicinal Chemistry, 2025).

Values joined by “and” are separate entries in the source; they are usually repeats but may differ in a detail not shown here. Equal values may be shown once. Read-outs that look alike come from different tables or passages of the source. Bounds are passed on as bounds.

The test system of data set [1] is caspase 3/7 in H929 cells. The experiment in a line: Caspase 3/7 induction assay (Caspase-Glo), H929. The data set is classed as cell-based. The settings on record: compound treatment for 3 h; for EC50: Homo sapiens, NCI-H929. As to the method:
(§1) Cells were treated with a 10-point compound titration and incubated at 37 °C for 3 h.

Data set [2] in a line: Mouse pharmacokinetic analyses (i.v. and oral). The data set is classed as in vivo. The settings on record: plasma; for AUC: dose not printed at this place. As to the method:
For PK analysis, mice were administered intravenously or orally with compound formulated in 10% ethanol and 10% Cremophor EL. Compound 13 dosing was also screened with 20% Phosphal IPG, 20% Phosphal MCT, 10% HP-β-CD, and 40% HP-β-CD. Plasma samples were obtained at predefined time points and compound concentrations in plasma were measured by quantitative HPLC–MS/MS using an internal standard. Calibration and quality control samples were prepared using blank plasma from untreated animals. Samples were precipitated with acetonitrile and injected into a HPLC system (Agilent 1200). Separation was performed by gradients of 5 mmol/L ammonium acetate pH 5.0 and acetonitrile with 0.1% formic acid on a Luna C8 reversed-phase column with 2.5 μm particles (Phenomenex). The HPLC was interfaced by ESI operated in positive ionization mode to a triple quadrupole mass spectrometer (6500+ Triple Quad System, SCIEX) operated in multiple reaction monitoring mode. Chromatograms were analyzed with Analyst (SCIEX) and pharmacokinetic parameters were calculated by noncompartmental analysis using proprietary software.

In another data set the test system is K562 cells. The experiment in a line: In vitro proliferation counterscreen, Mcl-1 insensitive K562. The data set is classed as cell-based. The settings on record: Homo sapiens; Mcl-1 insensitive K562; top concentration tested 12.5 µM. As for the experimental part:
NCI-H929, A427, and K562 cell lines were obtained from ATCC.
(§2) Suspension cells were plated immediately before compound addition. Adherent cell lines were incubated overnight at 37 °C in a tissue culture incubator prior to compound addition. Compounds were added in triplicates using an HP D300e Digital Dispenser (Hewlett-Packard) or manually at the concentrations indicated and total volumes were normalized using DMSO backfill, with final DMSO concentration of 0.5%. Control wells were treated with DMSO only. Following incubation for 72 or 96 h, a Cell Titer-Glo assay was conducted following the manufacturer recommendations (Promega, G9243) and luminescence was measured using a Victor X5 (PerkinElmer) or a Cytation 3 (Biotek) plate reader. % Viability was defined as relative luminescence units (RLU) of each well divided by the RLU of cells on day 0.

For data set [3], the system named is caspase 3/7 in A427 cells. The experiment in a line: Caspase 3/7 induction assay (Caspase-Glo), A427. The data set is classed as cell-based. The settings on record: compound treatment for 3 h; for EC50: Homo sapiens, A-427. As for the experimental part:
as §1

In the next data set the test system is NCI-H929 cells. The experiment in a line: In vitro proliferation assay (CellTiter-Glo), H929. The format is cell-based. Particulars: Homo sapiens, H929 cell line, average of at least n = 2, triplicate. As for the experimental part:
(§3) NCI-H929, A427, and K562 cell lines were obtained from ATCC. NCI-H929 cells were cultured in RPMI1640 (ATCC-formulated, Catalog No. 30-2001) + 10% fetal calf serum (FCS, GIBCO BRL, Cat. No. 26140) + 0.05 mM mercaptoethanol. A-427 cells were cultured in RPMI1640 (ATCC-formulated, Catalog No. 30-2001) + 10% fetal calf serum (FCS, GIBCO BRL, Cat. No. 26140). K562 cell lines were cultured in Iscove’s Modified Dulbecco Medium (Gibco-formulated, purchased from Thermo-Fisher, Cat. No. 12440-053) + 10% fetal bovine serum (FBS, Sigma-Aldrich, F2442). All cell lines were cultured at 37 °C with 5% CO2 in a humidified incubator and have been regularly tested negatively for mycoplasm contamination.
as §2, with “Cells were seeded at 750–1500 cells per well (depending on growth kinetics) in 384-well plates (Corning, Catalog No. 3707) or at 3000 cells per well in 96-well plates in the respective growth medium and allowed to settle overnight. Suspension cells” for “Suspension cells”, “day 0. Four parameter sigmoidal dose–response curves were generated and IC50 values were determined using XLFit (IDBS) software (eq 205) or in-house software. Drug combination experiments were performed in 96-well or 384-well format and drug synergy was determined using the BLISS model (PMID: 26171228).” for “day 0.”

Data set [4] has as its system caspase 3/7 in K562 cells. The experiment in a line: Caspase 3/7 induction assay (Caspase-Glo), K562. The data set is classed as cell-based. The settings on record: compound treatment for 3 h; for EC50: Homo sapiens, K562. As to the method:
as §1

The next data set concerns the target T1, Mcl-1 (Homo sapiens, UniProt Q07820).
T1 construct: Briefly, a previously reported construct was subcloned into an expression vector (pDEST-HisMBP); MBP (from vector pDEST-HisMBP); made in house; host or cells: Escherichia coli BL21 CodonPlus (DE3) RIL
The experiment in a line: TR-FRET binding assay (FITC-Bak peptide competition). The text has this: Protein preparation was described previously. Briefly, a previously reported construct was subcloned into an expression vector (pDEST-HisMBP) expressed in Escherichia coli BL21 CodonPlus (DE3) RIL (Stratagene) and purified through nickel-column and size-exclusion chromatography sequentially.
Mixtures containing vehicle without compound served as a negative control, while mixtures containing no protein served as a positive control. […] Two or more repeats were obtained and average K i values are reported.

A further data set has as its system A427 cells. The experiment in a line: In vitro proliferation assay (CellTiter-Glo), A427. The data set is classed as cell-based. Particulars: Homo sapiens, A-427; A427 cell line; average of at least n = 2, triplicate. As for the experimental part:
as §3
as §2, with “Cells were seeded at 750–1500 cells per well (depending on growth kinetics) in 384-well plates (Corning, Catalog No. 3707) or at 3000 cells per well in 96-well plates in the respective growth medium and allowed to settle overnight. Suspension cells” for “Suspension cells”, “day 0. Four parameter sigmoidal dose–response curves were generated and IC50 values were determined using XLFit (IDBS) software (eq 205) or in-house software. Drug combination experiments were performed in 96-well or 384-well format and drug synergy was determined using the BLISS model (PMID: 26171228).” for “day 0.”

Setting [5] is: iv, dosed at 20 mg/kg, read-out: i.v. mouse CL.
Where [6] appears, read: iv, supplementary CSV, unit not given (Table 1: 20 mg/kg, 14 and 16 at 10 mg/kg), read-out: CL.
[7] abbreviates: in the presence of 1% fetal bovine serum, average of at least n = 2, read-out: TRFRET, Mcl-1 Ki.
The mark [8] stands for this setting: supplementary CSV, unit inferred, read-out: Ki TRFRET.

T1 sequence (Q07820 whole entry): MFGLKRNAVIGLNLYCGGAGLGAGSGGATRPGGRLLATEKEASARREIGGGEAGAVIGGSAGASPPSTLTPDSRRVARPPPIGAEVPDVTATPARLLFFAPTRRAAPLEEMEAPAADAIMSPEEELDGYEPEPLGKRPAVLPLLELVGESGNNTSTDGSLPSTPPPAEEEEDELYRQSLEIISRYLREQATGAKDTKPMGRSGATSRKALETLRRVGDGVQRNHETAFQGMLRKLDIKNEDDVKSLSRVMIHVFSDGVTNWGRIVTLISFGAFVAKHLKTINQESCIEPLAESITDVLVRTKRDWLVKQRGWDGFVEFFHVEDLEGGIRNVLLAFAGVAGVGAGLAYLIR

As for `COCCOc1cc2c3c(cc(C(=O)O)n3CCCOCc3nn(C)cc3-c3c(Cl)ccc4c(CCCOc5cc(C)c(Cl)c(C)c5)c5n(c34)[C@H](C)CN2C5=O)c1OC` [Compound 19, (2^63^4 S a ,1^72^2 R a ,2^4 R)-2^7-Chloro-2^10-(3-(4-chloro-3,5-dimethylphenoxy)propyl)-1^4-methoxy-1^5-(2-methoxyethoxy)-2^4,3^1-dimethyl-2^1-oxo-2^1,2^2,2^3,2^4-tetrahydro-1^1 H,3^1 H-5-oxa-2(2,6)-pyrazino[1,2-a]indola-1(7,1)-indola-3(4,3)-pyrazolacyclooctaphane-1^2-carboxylic Acid], the EC50 in data set [1] is 11 nM; in data set [3], 13 nM; in data set [4], over 3120 nM. The “H929 Caspase 3/7 maximum activity, fold over vehicle (FoV)” value (“H929 Caspase 3/7 maximum activity, fold” below) in data set [1] amounted to 16 fold. Further, the clearance in data set [2] (setting [5]) and in data set [2] (setting [6]) was 19.8 mL/min/kg each time. For the same compound, the GI50 in the data set with K562 cells was over 11200 nM; with NCI-H929 cells it was 10 ± 3 nM; in the data set with A427 cells, 18 ± 6 nM. The “A427 Caspase 3/7 fold over vehicle (FoV)” value in data set [3] is listed as 14 fold. The “K562 Caspase 3/7 fold over vehicle (FoV)” value in data set [4] came out at 1.4 fold. Further, the Ki at Mcl-1 (setting [7]) was under 0.08 nM; on Mcl-1 (setting [8]), under 0.02 nM.

As for `COc1cc2c3c(cc(C(=O)O)n3CCCOCc3ncccc3-c3c(Cl)ccc4c(CCCOc5cc(C)c(Cl)c(C)c5)c5n(c34)[C@H](C)CN2C5=O)c1OC` [Compound 21, (2^63^4 S a ,1^72^2 R a ,2^4 R)-2^7-Chloro-2^10-(3-(4-chloro-3,5-dimethylphenoxy)propyl)-1^4,1^5-dimethoxy-2^4-methyl-2^1-oxo-2^1,2^2,2^3,2^4-tetrahydro-1^1 H-5-oxa-2(2,6)-pyrazino[1,2-a]indola-1(7,1)-indola-3(3,2)-pyridinacyclooctaphane-1^2-carboxylic Acid], the EC50 in data set [1] was 12 nM; in data set [3], 17 nM; in data set [4], over 3120 nM. Besides, in data set [1], the “H929 Caspase 3/7 maximum activity, fold” value amounted to 16 fold. Further, the clearance in data set [2] (setting [5]) and in data set [2] (setting [6]) was 8 mL/min/kg in each case. Besides, the GI50 with K562 cells is over 12500 nM; in the data set with NCI-H929 cells, 17 ± 8 nM; with A427 cells, 39 ± 7 nM. The “A427 Caspase 3/7 fold over vehicle (FoV)” value in data set [3] is listed as 14 fold. Also, in data set [4], the “K562 Caspase 3/7 fold over vehicle (FoV)” value is reported as 1.4 fold. The results for the inhibitory constant (Ki) at Mcl-1 (setting [7]) and at Mcl-1 (setting [8]) were under 0.08 nM and under 0.02 nM, respectively.

On to `COc1ccc2c3c1cc(C(=O)O)n3CCCOCc1nn(C)cc1-c1c(Cl)ccc3c(CCCOc4cc(C)c(Cl)c(C)c4)c4n(c13)[C@H](C)CN2C4=O` [Compound 16, (2^63^4 S a ,1^72^2 R a ,2^4 R)-2^7-Chloro-2^10-(3-(4-chloro-3,5-dimethylphenoxy)propyl)-1^4-methoxy-2^4,3^1-dimethyl-2^1-oxo-2^1,2^2,2^3,2^4-tetrahydro-1^1 H,3^1 H-5-oxa-2(2,6)-pyrazino[1,2-a]indola-1(7,1)-indola-3(4,3)-pyrazolacyclooctaphane-1^2-carboxylic Acid], for which the EC50 in data set [1] was 16 nM; in data set [3] it was 24 nM; in data set [4], over 3120 nM. Also, the “H929 Caspase 3/7 maximum activity, fold” value in data set [1] is 16 fold and 16 (16) fold. Moreover, the clearance in data set [2] (iv, dosed at 10 mg/kg, read-out: i.v. mouse CL) stood at 17.3 mL/min/kg; in data set [2] (setting [6]), 17.3 mL/min/kg. Further, the figures for the GI50 with K562 cells, with NCI-H929 cells and with A427 cells were over 12500 nM, 27 ± 3 nM and 45 ± 17 nM, respectively. Besides, the “A427 Caspase 3/7 fold over vehicle (FoV)” value in data set [3] is 15 fold. The “K562 Caspase 3/7 fold over vehicle (FoV)” value in data set [4] was 1.3 fold. Also, the Ki at Mcl-1 (setting [7]) was under 0.08 nM.

As to `COc1c(C)cc2c3c1cc(C(=O)O)n3CCCOCc1nn(C)cc1-c1c(Cl)ccc3c(CCCOc4cc(C)c(Cl)c(C)c4)c4n(c13)[C@H](C)CN2C4=O` [Compound 18, (2^63^4 S a ,1^72^2 R a ,2^4 R)-2^7-Chloro-2^10-(3-(4-chloro-3,5-dimethylphenoxy)propyl)-1^4-methoxy-1^5,2^4,3^1-trimethyl-2^1-oxo-2^1,2^2,2^3,2^4-tetrahydro-1^1 H,3^1 H-5-oxa-2(2,6)-pyrazino [1,2-a]indola-1(7,1)-indola-3(4,3)-pyrazolacyclooctaphane-1^2-carboxylic Acid], the concentration for a half-maximal effect (EC50) in data set [1] was 36 nM; in data set [3] it was 28 nM; in data set [4], over 3120 nM. In addition, the “H929 Caspase 3/7 maximum activity, fold” value in data set [1] came to 17 fold. The clearance in data set [2] (setting [5]) and in data set [2] (setting [6]) was 14.8 mL/min/kg in each case. In addition, the GI50 with K562 cells was over 12500 nM; with NCI-H929 cells, 35 ± 16 nM; in the data set on A427 cells, 51 ± 20 nM. Also, the “A427 Caspase 3/7 fold over vehicle (FoV)” value in data set [3] was 16 fold. The “K562 Caspase 3/7 fold over vehicle (FoV)” value in data set [4] was found to be 1.4 fold. Further, the Ki on Mcl-1 (setting [7]) is under 0.08 nM; at Mcl-1 (setting [8]), 0.04 nM.

As for `COc1cc2c3c(cc(C(=O)N(C)C)n3CCCOCc3nn(C)cc3-c3c(Cl)ccc4c(CCCOc5cc(C)c(Cl)c(C)c5)c5n(c34)[C@H](C)CN2C5=O)c1OC` [Compound 25, (2^63^4 S a ,1^72^2 R a ,2^4 R)-2^7-chloro-2^10-(3-(4-chloro-3,5-dimethylphenoxy)propyl)-1^4,1^5-dimethoxy-N,N,2^4,3^1-tetramethyl-2^1-oxo-2^1,2^2,2^3,2^4-tetrahydro-1^1 H,3^1 H-5-oxa-2(2,6)-pyrazino[1,2-a]indola-1(7,1)-indola-3(4,3)-pyrazolacyclooctaphane-1^2-carboxamide], the values for the EC50 in data set [1], in data set [3] and in data set [4] were 17 nM, 24 nM and over 3120 nM, respectively. Also, in data set [1], the “H929 Caspase 3/7 maximum activity, fold” value turned out to be 16 fold. The AUC was 136 µM·h in data set [2] (iv, read-out: AUCIV) and 14 µM·h in data set [2] (oral, read-out: AUCPO). The clearance in data set [2] (setting [5]) and in data set [2] (setting [6]) was 6.4 mL/min/kg throughout. Moreover, in data set [2] (po, read-out: oral bioavailability (F)), the bioavailability was determined as 22%. Further, the values for the GI50 with K562 cells, in the data set with NCI-H929 cells and in the data set with A427 cells were over 12500 nM, 39 ± 7 nM and 105 ± 24 nM, respectively. The “A427 Caspase 3/7 fold over vehicle (FoV)” value in data set [3] was 14 fold. Further, the “K562 Caspase 3/7 fold over vehicle (FoV)” value in data set [4] is 1.4 fold. Further, the results for the Ki at Mcl-1 (setting [7]) and at Mcl-1 (setting [8]) were under 0.08 nM and 0.077 nM, respectively.
